Measured values reported in patent US6911454B1, “Method for potentiating primary drugs in treating multidrug resistant disease” (priority 1989, dated 2005).

Tested on: DX20 cancer cells
Assay: modified MTT assay, drug sensitivity of DX20 cells
Type: cell-based, human
From the text: The MES-SA/DX20 cell line was established according to the development methods of Sikic et al., Resistance to Antineoplastic Drugs, Chap. 3, CRC Press, Ed. David Kessel, pp. 37-47 (1989). In vitro drug sensitivity testing consisted of two assay models, the modified MTT assay (Mossman, J. Immunolog. Methods, Vol. 65, pp. 55-63, 1983) and the colonogenic assay. In addition to this, the combinations were investigated in vivo in nude mice bearing the DX20 cell line. The MTT assay was chosen because of its practical advantages in large-scale screening. The assay involved cellular conversion of tetrazolium salt to a colored formazan serving as a measurement of cell viability.
In a given experiment, culture media, 50 microliters, containing 8,000-25,000 cells, depending on the proliferation rate of the cell line, was pipetted into each well of several 96-well microtiter plates. The cells were allowed to attach overnight. […] The cytotoxic drug, also at a concentration below that previously established as an IC50, was then added at decreasing concentrations by 25% to several half plate sections. The cells were allowed to grown for 72 hours. 100 microliters of media was then removed and 25 microliters of 5 mg/ml MTT (Sigma, St. Louis, Mo.) in phosphate buffered saline was added to each well. The plates were kept in an incubator at 37° C. and 5% CO2. After 2-3 hours of incubation, the extraction buffer containing 20% w/v SDS and 50% DMF was added and the plates again incubated overnight. The plates were read at a test wavelength of 570 nm on a multiwell spectrophotometer (Model MR 700, Dynatech Laboratories, Alexandria, Va.). Each drug combination was tested in triplicate. Percent survival was defined as percent of optical density (OD) of the drug-treated wells to that of the control detected by the spectrophotometer.
The in vitro drug sensitivity testing of ethyl fangchinoline consisted of two assay models, the modified MTT (Mossman 1983) and a colony formation assay in which a direct measure was taken by quantitation of colony formation. The MTT assay was chosen because of its practical advantages in large scale screening. The assay involves cellular conversion of tetrozolium salt to a colored formazan serving as a measurement of cell viability.
Two human cell lines were chosen as the primary targets of study in reversing multiple-drug resistance. The MES-SA, a sarcoma, and its resistant subline, DX-20, were kindly donated by Dr. B. Sikic (U of Stanford, Stanford, Calif.). The A2780, an ovarian cancer, and its resistant subline, A2780-ad10, were provided by Roswell Park Memorial Inst. (Buffalo, N.Y.).
Culture media, 50 ul containing 8,000 to 25,000 cells depending on the proliferation rate of the line, was pipetted into each of 96 wells in a flat bottom tissue plate. The cells were incubated overnight to allow adherence. One hundred ul of ethyl fangchinoline, at a concentration below that previously established as an independent IC50, was added to each experimental well. […] The plates were then incubated for 72 hours before MTT was added and the analysis of O.D. values interpreted by a multi-plate scanner (MR700, Dynatech).

## COc1ccc2cc1Oc1ccc(cc1)C[C@H]1c3cc(c(OC)cc3CCN1C)Oc1c(OC)c(OC)cc3c1[C@H](C2)N(C)CC3 [TT, tetrandrine]
DX20 cells, single agent, read-out: IC50 alone
  IC50: 4.3 µM
FIG. 1, DX20 versus parent MES-SA, addition of d-tetrandrine
  doxorubicin resistance reversal: either partially or completely reversed
FIG. 2, DX20 versus parent MES-SA, addition of d-tetrandrine
  vincristine-resistance reversal: either partially or completely reversed
FIG. 3, DX20 versus parent MES-SA, addition of d-tetrandrine
  vinblastine resistance reversal: either partially or completely reversed
d-tetrandrine 1.0×10^−6 M combined with doxorubicin 1.2×10^−8 M
  sensitivity of DX20 to doxorubicin versus parent (MES) cell line: becomes more sensitive to doxorubicin than the parent (MES) cell line
